Our source for the Ki and melting point values is patent publication US8188284B2, “2-aminoquinolines” (Hoffman-La Roche Inc., priority 2008, dated 2012).

The structures appear in SMILES notation. Where two headings read alike, the source gives them in different places.

For series [1], the target named is T1, recombinant human 5-HT5A receptor (Homo sapiens, UniProt P47898).
T1 construct: expressed in transfected cells; host or cells: HEK-EBNA (Human Embryonic Kidney-EBNA) cells, transient cDNA expression, membranes
Description: [3H]LSD radioligand binding assay. As to the method: A [^3H]LSD radioligand binding assay was used to determine the affinity of the compounds for the recombinant human 5-HT5A receptor, in membranes from transiently (cDNA) expressed 5-HT5A receptors in Human Embryonic Kidney-EBNA (HEK-EBNA) cells. Assay buffer consisted of Tris (50 mM) buffer containing 1 mM EGTA, 10 mM MgCl2 (pH 7.4) and 10 μM pargyline. The binding assay was carried out in 96-well-plates in the presence of [^3H]LSD (approximately 1 nM), approximately 2 μg/well of membrane protein, and 0.5 mg of Ysi-poly-1-lysine SPA beads in a final volume of 200 μl of buffer. Non-specific binding was defined using methiothepin 2 μM. Compounds were tested at 10 concentrations. All assays were conducted in duplicate and repeated at least two times. Assay plates were incubated for 120 min at room temperature before centrifugation. Bound ligand was determined using a Packard Topcount scintillation counter. IC50 values were calculated using a non-linear curve fitting program and Ki values calculated using the Cheng-Prussoff equation.

Where [2] appears, read: [3H]LSD (approximately 1 nM), membranes from HEK-EBNA cells transiently expressing 5-HT5A receptors, Ki calculated from IC50 using the Cheng-Prussoff equation, read-out: Ki/nM 5-HT5A.

T1 sequence (P47898 whole entry): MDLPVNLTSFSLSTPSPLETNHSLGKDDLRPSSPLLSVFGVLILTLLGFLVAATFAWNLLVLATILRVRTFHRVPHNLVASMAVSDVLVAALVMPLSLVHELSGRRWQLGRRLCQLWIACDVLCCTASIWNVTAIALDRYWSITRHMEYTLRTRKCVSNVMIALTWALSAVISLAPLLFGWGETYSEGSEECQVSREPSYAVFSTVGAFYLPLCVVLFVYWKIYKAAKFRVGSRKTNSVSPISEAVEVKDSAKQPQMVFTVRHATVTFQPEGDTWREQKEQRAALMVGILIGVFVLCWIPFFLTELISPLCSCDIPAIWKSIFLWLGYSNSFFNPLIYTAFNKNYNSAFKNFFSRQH

On to `Cc1cc(Nc2ccc3nc(N[C@@H]4CCc5ccccc54)ccc3c2)no1` [Example 74, N^2—(R)-Indan-1-yl-N^6-(5-methyl-isoxazol-3-yl)-quinoline-2,6-diamine], for which the melting point worked out at 127 °C. Also, the Ki in series [1] (setting [2]) was 8.7 nM.

For `Fc1ccc2c(c1)CCC2Nc1ccc2cc(Nc3nccc(C(F)(F)F)n3)ccc2n1` (racemic) [Example 103, rac-N^2-(5-Fluoro-indan-1-yl)-N^6-(4-trifluoromethyl-pyrimidin-2-yl)-quinoline-2,6-diamine], the melting point turned out to be 112 °C. For the same molecule, the Ki in series [1] (setting [2]) is 13.7 nM.

In the case of `ON=C(c1ccc(F)cc1)c1ccc2nc(N[C@@H]3CCc4ccccc43)ccc2c1` [Example 56, (4-Fluoro-phenyl)-[2-((R)-indan-1-ylamino)-quinolin-6-yl]-methanone oxime], the melting point was found to be 225.5 °C. The Ki in series [1] (setting [2]) was 141 nM.

Regarding `c1ccc2c(c1)CC[C@H]2Nc1ccc2cc(Nc3nnc(C4CC4)o3)ccc2n1` [Example 76, N^6-(5-Cyclopropyl-[1,3,4]oxadiazol-2-yl)-N^2—(R)-indan-1-yl-quinoline-2,6-diamine], the melting point amounted to 226 °C. In addition, the Ki in series [1] (setting [2]) is 24.8 nM.

As for `O=C(NCc1ccc(F)cc1)c1ccc2nc(N[C@@H]3CCc4ccccc43)ccc2c1` [Example 52, 2-((R)-Indan-1-ylamino)-quinoline-6-carboxylic acid 4-fluoro-benzylamide], the melting point turned out to be 175 °C.

Turning to `COc1cccc2c1C(Nc1ccc3cc(Nc4cccc(C(F)(F)F)n4)ccc3n1)CC2` (racemic) [Example 91, rac-N^2-(7-Methoxy-indan-1-yl)-N^6-(6-trifluoromethyl-pyridin-2-yl)-quinoline-2,6-diamine], the melting point was 126 °C. Also, in series [1] (setting [2]), the Ki is 5.4 nM.

In the case of `Cc1cc(Nc2ccc3nc(NC4CCc5cc(F)ccc54)ccc3c2)no1` (racemic) [Example 106, rac-N^2-(5-Fluoro-indan-1-yl)-N^6-(5-methyl-isoxazol-3-yl)-quinoline-2,6-diamine], the melting point is 166 °C. Moreover, the Ki in series [1] (setting [2]) was 7.3 nM.

Molecule `Cc1ccnc(Nc2ccc3nc(N[C@@H]4CCc5ccccc54)ccc3c2)n1` [Example 68, N^2—(R)-Indan-1-yl-N^6-(4-methyl-pyrimidin-2-yl)-quinoline-2,6-diamine] came in with a melting point of 103 °C. Also, the Ki in series [1] (setting [2]) was 20 nM.

In turn, `COc1cccc2c1C(Nc1ccc3cc(Nc4nc(C)cc(C)n4)ccc3n1)CO2` (racemic) [Example 111, rac-N^6-(4,6-Dimethyl-pyrimidin-2-yl)-N^2-(4-methoxy-2,3-dihydro-benzofuran-3-yl)-quinoline-2,6-diamine] showed a melting point of 145 °C. Moreover, in series [1] (setting [2]), the Ki was 9.1 nM.

The molecule `c1ccc(Nc2ccc3nc(N[C@@H]4CCc5ccccc54)ccc3c2)nc1` [Example 69, N^2—(R)-Indan-1-yl-N^6-pyridin-2-yl-quinoline-2,6-diamine] registered a melting point of 77 °C. In addition, the Ki in series [1] (setting [2]) was 20.4 nM.

For the molecule `COc1cccc2c1C(Nc1ccc3cc(Nc4nccc(C(F)(F)F)n4)ccc3n1)CC2` (racemic) [Example 92, rac-N^2-(7-Methoxy-indan-1-yl)-N^6-(4-trifluoromethyl-pyrimidin-2-yl)-quinoline-2,6-diamine], the melting point amounted to 196 °C. The Ki in series [1] (setting [2]) was 4.3 nM.

Molecule `c1cnc(Nc2ccc3nc(N[C@@H]4CCc5ccccc54)ccc3c2)nc1` [Example 66, N^2—(R)-Indan-1-yl-N6-pyrimidin-2-yl-quinoline-2,6-diamine] displayed a melting point of 142 °C. In addition, the Ki in series [1] (setting [2]) is 23.2 nM.

For the molecule `OCCc1cccc(Nc2ccc3nc(N[C@@H]4CCc5ccccc54)ccc3c2)c1` [Example 83, 2-{3-[2-((R)-Indan-1-ylamino)-quinolin-6-ylamino]-phenyl}-ethanol], the melting point was 109 °C. In addition, the Ki in series [1] (setting [2]) was 9.6 nM.

In the case of `COc1cccc2c1C(Nc1ccc3cc(Nc4cccc(C(F)(F)F)n4)ccc3n1)CO2` (racemic) [Example 109, rac-N^2-(4-Methoxy-2,3-dihydro-benzofuran-3-yl)-N^6-(6-trifluoromethyl-pyridin-2-yl)-quinoline-2,6-diamine], the melting point came out at 132 °C. Moreover, the Ki in series [1] (setting [2]) was 26.1 nM.

The molecule `COc1cccc2c1C(Nc1ccc3cc(Nc4cc(C)on4)ccc3n1)CO2` (racemic) [Example 113, rac-N^2-(4-Methoxy-2,3-dihydro-benzofuran-3-yl)-N^6-(5-methyl-isoxazol-3-yl)-quinoline-2,6-diamine] gave a melting point of 222 °C. Moreover, the Ki in series [1] (setting [2]) was 14.4 nM.

In turn, `Cc1cc(C)nc(Nc2ccc3nc(NC4COc5ccccc54)ccc3c2)n1` (racemic) [Example 97, rac-N^2-(2,3-Dihydro-benzofuran-3-yl)-N^6-(4,6-dimethyl-pyrimidin-2-yl)-quinoline-2,6-diamine] registered a melting point of 213 °C.

`FC(F)(F)c1ccnc(Nc2ccc3nc(NC4COc5ccccc54)ccc3c2)n1` (racemic) [Example 98, rac-N^2-(2,3-Dihydro-benzofuran-3-yl)-N^6-(4-trifluoromethyl-pyrimidin-2-yl)-quinoline-2,6-diamine] had a melting point of 128 °C.

Take `COc1cccc2c1C(Nc1ccc3cc(Nc4nccc(C(F)(F)F)n4)ccc3n1)CO2` (racemic) [Example 110, rac-N^2-(4-Methoxy-2,3-dihydro-benzofuran-3-yl)-N^6-(4-trifluoromethyl-pyrimidin-2-yl)-quinoline-2,6-diamine]: the melting point was 185 °C. Moreover, the Ki in series [1] (setting [2]) was 11.8 nM.

`Cc1cc(Nc2ccc3nc(NC4COc5ccccc54)ccc3c2)no1` (racemic) [Example 101, rac-N^2-(2,3-Dihydro-benzofuran-3-yl)-N^6-(5-methyl-isoxazol-3-yl)-quinoline-2,6-diamine]: the melting point stood at 195 °C.

Consider `COc1ccccc1CNC(=O)c1ccc2nc(N[C@@H]3CCc4ccccc43)ccc2c1` [Example 55, 2-((R)-Indan-1-ylamino)-quinoline-6-carboxylic acid 2-methoxy-benzylamide], for which the melting point stood at 168 °C. The Ki in series [1] (setting [2]) is 281 nM.

The molecule `FC(F)(F)c1ccnc(Nc2ccc3nc(N[C@@H]4CCc5ccccc54)ccc3c2)n1` [Example 73, N^2—(R)-Indan-1-yl-N^6-(4-trifluoromethyl-pyrimidin-2-yl)-quinoline-2,6-diamine] returned a melting point of 165 °C. Moreover, the Ki in series [1] (setting [2]) is 11 nM.

Consider `COc1cccc2c1C(Nc1ccc3cc(NC(=O)Cc4ccncc4)ccc3n1)CC2` (racemic) [Example 115, rac-N-[2-(7-Methoxy-indan-1-ylamino)-quinolin-6-yl]-2-pyridin-4-yl-acetamide], for which, in series [1] (setting [2]), the Ki is 15 nM.

As for `FC(F)(F)c1cccc(Nc2ccc3nc(N[C@@H]4CCc5ccccc54)ccc3c2)n1` [Example 80, N^2—(R)-Indan-1-yl-N^6-(6-trifluoromethyl-pyridin-2-yl)-quinoline-2,6-diamine], the Ki in series [1] (setting [2]) was 24.1 nM.

For the molecule `COc1ccc(OC(=O)Nc2ccc3nc(N[C@@H]4CCc5ccccc54)ccc3c2)cc1` [Example 47, [2-((R)-Indan-1-ylamino)-quinolin-6-yl]-carbamic acid 4-methoxy-phenyl ester], the Ki in series [1] worked out at 20 nM.
